From patent publication US8785445B2 (Array BioPharma Inc., priority 2008, dated 2014) come the findings set out here.

SMILES strings stand for the structures.

The first test deals with T1, human DP2 (Homo sapiens, UniProt Q9Y5Y4).
T1 construct: expressed in transfected cells; membranes prepared
T1 sequence (Q9Y5Y4 1-395): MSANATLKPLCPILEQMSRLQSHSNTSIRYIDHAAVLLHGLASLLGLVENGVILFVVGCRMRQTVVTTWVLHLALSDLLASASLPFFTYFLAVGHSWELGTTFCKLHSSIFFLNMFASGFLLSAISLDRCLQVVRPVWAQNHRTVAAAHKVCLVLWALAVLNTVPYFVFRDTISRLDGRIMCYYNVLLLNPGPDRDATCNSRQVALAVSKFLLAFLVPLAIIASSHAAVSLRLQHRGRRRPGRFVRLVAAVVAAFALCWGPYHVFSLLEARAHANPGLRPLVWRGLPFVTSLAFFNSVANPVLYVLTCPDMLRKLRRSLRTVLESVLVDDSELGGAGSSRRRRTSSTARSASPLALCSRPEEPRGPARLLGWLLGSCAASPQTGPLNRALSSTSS
The experiment in a line: DP-2 binding inhibition assay (3H-PGD2, membranes of DP2-expressing K562 cells). The note with it: 0.1% BSA, read-out: EC50 (nM) 0.1% BSA. An outline of the steps: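 Displacement of 3H-PGD2 was measured by filtration and scintillation counting after 60 min at room temperature, using membranes of DP2-transfected K562 cells in 0.1% BSA, 1% HSA or 4% HSA.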
Usually EC50 stands for the concentration that produces a half-maximal response. Take `N#Cc1cc2c(cc1Oc1ccc(C(=O)Nc3ccc4[nH]ncc4c3)cc1)OCCC2C(=O)O` (stereo not shown) [Example 192, 7-(4-(1H-indazol-5-ylcarbamoyl)phenoxy)-6-cyanochroman-4-carboxylic acid]: the EC50 was determined as 492 nM.

For the molecule `Cc1nc2ccc(NC(=O)c3ccc(Oc4cc5c(cc4C#N)C(C(=O)O)CCO5)cc3)cc2s1` (stereo not shown) [Example 189, 6-cyano-7-(4-(2-methylbenzo[d]thiazol-6-ylcarbamoyl)phenoxy) chroman-4-carboxylic acid], the EC50 turned out to be 43.3 nM.

As for `O=C(Nc1cnc2cc(Cl)ccc2n1)c1ccc(Oc2cc3c(cc2Cl)C(C(=O)O)CCO3)cc1` (stereo not shown) [Example 15, 6-Chloro-7-(4-(6-chloroquinoxalin-2-ylcarbamoyl)phenoxy)chroman-4-carboxylic acid], the EC50 is 17.9 nM.

Still in this test, the particulars now being: 1% HSA, read-out: EC50 (nM) 1% HSA.
Regarding `O=C(Nc1cnc2cc(Cl)ccc2n1)c1ccc(Oc2cc3c(cc2Cl)C(C(=O)O)CCO3)cc1` (stereo not shown) [Example 15, 6-Chloro-7-(4-(6-chloroquinoxalin-2-ylcarbamoyl)phenoxy)chroman-4-carboxylic acid], the EC50 amounted to 207 nM.

Staying with this test, now noted: 4% HSA, read-out: EC50 (nM) 4% HSA.
`O=C(Nc1cccc(-c2ccccc2Cl)n1)c1ccc(Oc2cc3c(cc2Cl)C(C(=O)O)CCO3)cc1` (stereo not shown) [Example 56, 6-Chloro-7-(4-(6-(2-chlorophenyl)pyridin-2-ylcarbamoyl)phenoxy)chroman-4-carboxylic acid]: the EC50 turned out to be 582 nM.

`N#Cc1cc2c(cc1Oc1ccc(C(=O)Nc3nnc(-c4ccc(Cl)cc4)s3)cc1)OCCC2C(=O)O` (stereo not shown) [Example 204, 7-(4-(5-(4-chlorophenyl)-1,3,4-thiadiazol-2-ylcarbamoyl)phenoxy)-6-cyanochroman-4-carboxylic acid]: the concentration for a half-maximal effect (EC50) worked out at 3440 nM.

As to `O=C(Nc1nnc(-c2ccc(Cl)cc2)s1)c1ccc(Oc2cc3c(cc2Cl)C(C(=O)O)CCO3)cc1` (stereo not shown) [Example 149, 6-chloro-7-(4-(5-(4-chlorophenyl)-1,3,4-thiadiazol-2-ylcarbamoyl)phenoxy)chroman-4-carboxylic acid], the EC50 came to 1660 nM.

Turning to `COc1nc(C2CC2)ccc1CCNC(=O)c1ccc(Oc2cc3c(cc2Cl)C(C(=O)O)CCO3)cc1` (stereo not shown) [Example 184, Sodium 6-Chloro-7-(4-(2-(6-cyclopropyl-2-methoxypyridin-3-yl)ethylcarbamoyl)phenoxy)chroman-4-carboxylate], the EC50 was 42.1 nM.

`O=C(Nc1ccn(-c2cccc(Cl)c2)n1)c1ccc(Oc2cc3c(cc2Cl)C(C(=O)O)CCO3)cc1` (stereo not shown) [Example 172, 6-chloro-7-(4-(1-(3-chlorophenyl)-1H-pyrazol-3-ylcarbamoyl)phenoxy)chroman-4-carboxylic acid]: the EC50 was 55 nM.

Regarding `O=C(Nc1cnc(-c2ccc(C(F)(F)F)cc2)cn1)c1ccc(Oc2cc3c(cc2Cl)C(C(=O)O)CCO3)cc1` (stereo not shown) [Example 61, Sodium 6-chloro-7-(4-(5-(4-(trifluoromethyl)phenyl)pyrazin-2-ylcarbamoyl)phenoxy)chroman-4-carboxylate], the EC50 is 539 nM.

Regarding `O=C(Nc1ccc(-c2ccc(Cl)c(Cl)c2)nn1)c1ccc(Oc2cc3c(cc2Cl)C(C(=O)O)CCO3)cc1` (stereo not shown) [Example 65, Sodium 6-chloro-7-(4-(6-(3,4-dichlorophenyl)pyridazin-3-ylcarbamoyl)phenoxy)chroman-4-carboxylate], the EC50 stood at 96.2 nM.

In the case of `O=C(Nc1ccc2cc(F)ccc2n1)c1ccc(Oc2cc3c(cc2Cl)C(C(=O)O)CCO3)cc1` (stereo not shown) [Example 18, 6-Chloro-7-(4-(6-fluoroquinolin-2-ylcarbamoyl)phenoxy)chroman-4-carboxylic acid], the EC50 was 185 nM.

For the molecule `O=C(Nc1ccc(-c2ccc(Cl)cc2)nc1)c1ccc(Oc2cc3c(cc2Cl)C(C(=O)O)CCO3)cc1` (stereo not shown) [Example 123, 6-Chloro-7-(4-(6-(4-chlorophenyl)pyridin-3-ylcarbamoyl)phenoxy)chroman-4-carboxylic acid], the EC50 is 294 nM.

As for `O=C(Nc1cccc(-c2cccc(C(F)(F)F)c2)n1)c1ccc(Oc2cc3c(cc2Cl)C(C(=O)O)CCO3)cc1` (stereo not shown) [Example 112, 6-Chloro-7-(4-(6-(3-(trifluoromethyl)phenyl)pyridin-2-ylcarbamoyl)phenoxy)chroman-4-carboxylic acid], the EC50 was 46 nM.

Take `O=C(NC1CCN(c2cccc(C(F)(F)F)n2)CC1)c1ccc(Oc2cc3c(cc2Cl)C(C(=O)O)CCO3)cc1` (stereo not shown) [Example 211]: the EC50 was found to be 421 nM.

Consider `O=C(Nc1cnc2cc(Cl)ccc2n1)c1ccc(Oc2cc3c(cc2Cl)C(C(=O)O)CCO3)cc1` (stereo not shown) [Example 15, 6-Chloro-7-(4-(6-chloroquinoxalin-2-ylcarbamoyl)phenoxy)chroman-4-carboxylic acid], for which the EC50 was found to be 409 nM.
